Article PMC4287973, “Tumor cell-specific inhibition of MYC function using small molecule inhibitors of the HUWE1 ubiquitin ligase” (EMBO Molecular Medicine, 2014)

Experiments:
[1] = biological target: T1, NEDD4 (Homo sapiens, UniProt P46934); assay: in vitro HECT-domain auto-ubiquitination assay, NEDD4; format: biochemical
T1 construct: HECT-domains of multiple ligases auto-ubiquitinate in in vitro assays containing both UBA1 and UbcH5b
Description: Briefly, the HECT-domain of HUWE1 was biotin-tagged, attached to streptavidin-coated 96-well plates, and incubated with UBA1, UbcH5b, a ubiquitin-conjugating enzyme that supports HUWE1 activity in vitro (Adhikary et al, [2005]), ATP, and MYC-tagged ubiquitin. Auto-ubiquitination was detected using a europium-labeled MYC antibody and appropriate detection reagents (Fig3A). […] These assays were used to analyze the specificity of the identified inhibitors.

[2] = biological target: T2, SMURF1 (Homo sapiens, UniProt Q9HCE7); assay: in vitro HECT-domain auto-ubiquitination assay, SMURF1; format: biochemical
T2 construct: HECT-domains of multiple ligases auto-ubiquitinate in in vitro assays containing both UBA1 and UbcH5b
T2 sequence (Q9HCE7 420-757 limits assumed, species assumed): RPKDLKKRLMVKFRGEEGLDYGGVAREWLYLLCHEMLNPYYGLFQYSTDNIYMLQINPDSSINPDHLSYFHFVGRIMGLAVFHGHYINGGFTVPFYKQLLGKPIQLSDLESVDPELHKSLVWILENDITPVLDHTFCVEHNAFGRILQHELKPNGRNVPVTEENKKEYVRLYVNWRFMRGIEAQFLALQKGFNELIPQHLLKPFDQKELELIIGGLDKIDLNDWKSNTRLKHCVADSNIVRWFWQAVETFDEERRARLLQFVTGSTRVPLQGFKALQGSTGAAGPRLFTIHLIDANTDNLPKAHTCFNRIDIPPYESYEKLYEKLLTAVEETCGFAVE

[3] = biological target: T3, SMURF2 (Homo sapiens, UniProt Q9HAU4); assay: in vitro HECT-domain auto-ubiquitination assay, SMURF2; format: biochemical
T3 construct: HECT-domains of multiple ligases auto-ubiquitinate in in vitro assays containing both UBA1 and UbcH5b
T3 sequence (Q9HAU4 414-748 limits assumed, species assumed): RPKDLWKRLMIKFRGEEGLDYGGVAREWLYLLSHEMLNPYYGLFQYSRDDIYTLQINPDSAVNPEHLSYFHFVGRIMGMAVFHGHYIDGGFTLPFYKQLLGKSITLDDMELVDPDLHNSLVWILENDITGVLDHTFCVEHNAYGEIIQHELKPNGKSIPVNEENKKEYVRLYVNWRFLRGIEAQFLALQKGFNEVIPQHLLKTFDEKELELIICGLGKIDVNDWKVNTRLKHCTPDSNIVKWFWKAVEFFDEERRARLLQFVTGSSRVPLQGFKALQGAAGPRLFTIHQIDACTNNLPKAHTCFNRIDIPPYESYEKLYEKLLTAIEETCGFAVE

[4] = test system: Ls174T cells; assay: Colony formation assay of Ls174T cells; format: cell-based; conditions: Homo sapiens, 120 h, stained after 5 days, read-out: estimated IC50 colony formation
Description: Partial shRNA-mediated depletion of HUWE1 led to a moderate, but highly significant reduction in IC50 value for growth inhibition by BI8622, arguing that growth inhibition is an on-target effect of the inhibitor (Supplementary Fig S6). […] Incubation with either compound retarded passage of Ls174T cells through all phases of the cell cycle, with the effect being strongest for G1. In contrast to colon carcinoma cells, HUWE1 is not required for proliferation of embryonic stem (ES) cells and deletion of HUWE1 instead delays the decrease of N-MYC levels that occurs upon removal of leukemia inhibitory factor (LIF) from the medium (Zhao et al, [2008]). […]
Figure 4 Effect of HUWE1 inhibition on growth and gene expression in epithelial and embryonic stem cells • Colony formation assays documenting growth of Ls174T cells in the presence of the indicated concentrations of HUWE1 inhibitors. […] A quantitation of N-MYC protein levels relative to Vinculin is shown below the blot (n = 3). • RQ–PCR assays documenting expression of MYC target gene expression in murine ES cells (F) and in crypt cultures of normal intestinal epithelial cells (G) upon inhibition of HUWE1. […]
HCT116, HEK293T, HeLa, HT29, ES, Phoenix, and U2OS cells were cultivated in DMEM (Sigma). […] Quantification of crystal violet staining was performed by extracting dye with 10% acetic acid and measuring absorbance at 590 nm. […]

[5] = test system: MYC target gene sets in Ls174T cells; assay: Microarray gene expression and GSEA in Ls174T cells; format: cell-based, human; conditions: for number of genes downregulated (microarray) / number of genes upregulated (microarray): Ls174T, 24 h, cut-off fold change 2, P < 0.01
Description: Finally, shRNA-mediated depletion of p53 (Supplementary Fig S8, upper panel) had no effect on regulation of MYC target genes by either compound (Supplementary Fig S8, lower panel). Collectively, the data establish that these compounds block MYC-dependent transcriptional activation via inhibition of HUWE1 in colon cancer cells.
Control or HUWE1-depleted Ls174T cells were treated with HUWE1 inhibitors or DMSO as control for 24 h. Expression of different MYC-induced target genes was analyzed by RQ–PCR. Error bars show SD of triplicate technical assays from one representative experiment (n = 5). • Time-dependent expression of the differentiation marker MUC2 upon HUWE1 inhibition. Ls174T cells were treated with HUWE1 inhibitors for the indicated times. Error bars show SD of triplicate technical assays from one representative experiment (n = 3). • Gene set enrichment analysis (GSEA) of gene expression changes upon HUWE1 inhibition. Ls174T cells were treated for 24 h with either HUWE1 inhibitor or DMSO as control. RNA was isolated and subjected to a microarray and gene set enrichment analysis. […] P-values were calculated using a test for hypergeometric distribution. • Heat map comparing gene expression after HUWE1 depletion to treatment with HUWE1 inhibitors. The left panel summarizes expression of all genes (n = 10,452) ordered according to their expression after HUWE1 knockdown. […] MYC binding data were taken from HeLa cells. […] The upper panels display examples of MYC-activated gene sets and their response to inhibition of HUWE1.
Microarray analyses were performed on a 44K Whole Human Genome Array (G4845A 026652, Agilent), and raw data were generated with the Feature Extraction software v10.1.1.1 (Agilent).
The P-value was calculated using a one-sample two-tailed Student's t-test with μ = 0. Gene set enrichment analysis (GSEA) was performed using default settings and the C2 gene sets from the MSigDB (www.broadinstitute.org/gsea/msigdb). To compare two GSEA, the normalized enrichment scores (NES) for all repressed gene sets were plotted and gene sets containing > 25% ribosomal protein genes were highlighted. Data are presented as means with standard deviation unless defined differently in the figure legends. P-values were calculated using Student's t-test.

[6] = test system: crypt cultures of normal intestinal epithelial cells; assay: Survival and viability of intestinal crypt (organoid) cultures; conditions: for fraction of individual crypts that died: long-term incubation of primary crypt cultures
Description: Murine intestinal crypt cultures were established from wild-type mice of a mixed background (50% C57Bl6J, 50% S129) as previously described (Sato et al, [2009]). Briefly, intestines were isolated and flushed with PBS. Villi were removed by scraping and remaining tissue cut and washed with PBS. Crypt extraction was carried out in PBS + 2 mM EDTA for 30 min at 4 °C. Isolated crypts were washed with PBS and plated in growth factor reduced Matrigel (BD Biosciences). Crypts were grown in Advanced DMEM (Invitrogen) supplemented with N2 (Invitrogen), B27 (Invitrogen), EGF (Peprotech), Noggin (Peprotech), and R-spondin (Peprotech). Media were replaced every 2 days and crypts passaged weekly. […] Organoid survival was scored at this point based on their microscopic appearance. Cell viability was also determined using a CellTiter-Blue Cell Viability Assay (Promega) according to the manufacturer's instructions.
end of the experiment, the number of life crypts was counted by visual inspection.

T1 sequence (P46934 984-1318 limits assumed, species assumed): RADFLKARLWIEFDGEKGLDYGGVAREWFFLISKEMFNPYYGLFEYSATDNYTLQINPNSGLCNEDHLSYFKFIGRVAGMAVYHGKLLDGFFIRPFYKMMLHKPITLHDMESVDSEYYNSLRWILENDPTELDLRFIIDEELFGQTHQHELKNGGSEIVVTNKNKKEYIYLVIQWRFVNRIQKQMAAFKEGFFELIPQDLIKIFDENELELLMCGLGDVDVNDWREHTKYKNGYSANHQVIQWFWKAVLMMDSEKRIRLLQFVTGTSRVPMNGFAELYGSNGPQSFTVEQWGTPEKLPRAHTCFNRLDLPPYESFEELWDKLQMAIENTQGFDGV

| Compound | IC50 [1] [µM] | IC50 [2] [µM] | IC50 [3] [µM] | IC50 [4] [µM] | number of genes downregulated (microarray) [5] | number of genes upregulated (microarray) [5] | effect on expression of sets of MYC-activated target genes in HUWE1-depleted cells ([5]; genome-wide analysis, HUWE1-depleted Ls174T cells) | Ki67 staining of intestinal crypts ([6]; 10 µM, 24 hr) | MTT assay corrected for number of live crypts ([6]; 10 µM, 24 hr) | number of live crypts, % of all crypts ([6]; 10 µM, 24 hr, visual inspection) [%] | fraction of individual crypts that died [6] |
| --- | --- | --- | --- | --- | --- | --- | --- | --- | --- | --- | --- |
| Cc1c(C(=O)Nc2ccc(CN)cc2)ncnc1N1CCC(C#N)(c2ccccc2)CC1 [BI8622] | > 50 | > 50 | > 50 | 8.4 | 2,295 | 2,267 | no statistically significant effect | Ki67-positive | no reduction | 68 | around 30% |
| NCc1cccc(CNc2ncnc3c(N4CCN(Cc5ccccc5)CC4)ncnc23)c1 [BI8626] | – | > 50 | > 50 | 0.7 | 2,923 | 2,796 | – | – | – | – | 60-80% |
